Test results: the NIST ThermoML archive (doi:10.1016/j.tca.2011.06.003)
± gives the expanded uncertainty stated by the source.

Conditions: 298.15 K, 101.33 kPa, Liquid; for viscosity: Capillary tube (Ostwald / Ubbelohde) method; for speed of sound: Sing-around technique in a fixed-path interferometer; for mass density: Vibrating tube method

| viscosity [mPa·s] | speed of sound [m/s] | mass density [kg/m3] | SMILES |
| --- | --- | --- | --- |
| 2.565 ± 0.016 | 1241.1 ± 0.8 | 805.953 ± 0.14 | CCCCO [butan-1-ol] |
| 2.063 ± 0.013 | 1140.4 ± 0.8 | 781.482 ± 0.15 | CC(C)O [propan-2-ol] |
| 5.627 ± 0.033 | 1670.5 ± 1 | 945.548 ± 0.099 | NCCNCCN [di(2-aminoethyl)amine] |
| 3.307 ± 0.02 | 1188.8 ± 0.8 | 798.104 ± 0.14 | CC(C)CO [2-methyl-1-propanol] |
